Laboratory results as given in patent publication CN113354616A, “二芳基-1,2,4-三唑类化合物及其制法和药物用途” (Institute of Materia Medica of CAMS and PUMC, priority 2020, dated 2021).

Experiments:
[1] = system: acute hyperuricemic mice (急性高尿酸血症小鼠); assay: 实验例3: effect of TAZ-3-19 on lowering blood uric acid in acute hyperuricemia model mice (hypoxanthine plus potassium oxonate); assay type: in vivo; details: acute hyperuricemia ICR mice, intragastric, n=10, compared with model control
[2] = system: hyperuricemic mice (高尿酸血症小鼠); assay: 实验例2: effect of TAZ-3-16 on lowering blood uric acid in hyperuricemic (HUA) model mice (hypoxanthine plus potassium oxonate, repeated stimulation); assay type: in vivo; details: HUA model ICR mice, intragastric, n=10, compared with model control

## CN1CCN(CCCOc2c(Cl)cc(-c3nc(-c4ccncc4)n[nH]3)cc2Cl)CC1 [TAZ-3-19]
[1]; 0.625 mg/kg
  decrease of peak blood uric acid: 5.7%
[1]; 1.25 mg/kg
  decrease of peak blood uric acid: 34.2%
[1]; 2.5 mg/kg
  decrease of peak blood uric acid: 68.0%

## Clc1cc(-c2nc(-c3ccncc3)n[nH]2)cc(Cl)c1OCCCN1CCCCC1 [TAZ-3-16]
[2]; 0.5 mg/kg once daily for 2 days
  blood uric acid level: 明显降低

## Cc1nc(-c2ccc(OCC(C)C)c(C#N)c2)sc1C(=O)O [非布索坦, reference compound]
[2]; 1 mg/kg once daily for 2 days
  blood uric acid level: 明显降低
